Assay results taken from BindingDB's records for doi:10.1016/s0960-894x(99)00301-7 (Nankai University, 1999).

Target: T1, Acetolactate synthase, chloroplastic (Arabidopsis thaliana, UniProt P17597)
T1 sequence (P17597 whole entry): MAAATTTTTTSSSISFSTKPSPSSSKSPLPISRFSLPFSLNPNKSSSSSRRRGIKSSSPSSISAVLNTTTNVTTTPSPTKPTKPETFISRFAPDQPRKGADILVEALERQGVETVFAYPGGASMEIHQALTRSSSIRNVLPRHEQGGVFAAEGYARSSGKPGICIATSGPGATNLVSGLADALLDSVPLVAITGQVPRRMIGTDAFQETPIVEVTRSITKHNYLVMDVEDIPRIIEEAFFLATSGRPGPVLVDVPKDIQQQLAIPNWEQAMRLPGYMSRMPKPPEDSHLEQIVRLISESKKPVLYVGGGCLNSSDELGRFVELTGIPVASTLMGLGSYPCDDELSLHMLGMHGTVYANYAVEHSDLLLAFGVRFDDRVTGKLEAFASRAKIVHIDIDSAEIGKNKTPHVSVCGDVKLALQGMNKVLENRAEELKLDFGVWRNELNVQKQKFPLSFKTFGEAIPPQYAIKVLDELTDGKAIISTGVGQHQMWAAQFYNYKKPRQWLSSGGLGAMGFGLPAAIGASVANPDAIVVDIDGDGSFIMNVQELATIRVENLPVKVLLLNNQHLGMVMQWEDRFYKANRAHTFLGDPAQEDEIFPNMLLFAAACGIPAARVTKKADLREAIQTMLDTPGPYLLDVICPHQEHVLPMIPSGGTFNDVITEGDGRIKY
Experiment: ChEBML_27494
From the text: Inhibitory activity against Acetolactate synthase (ALS) enzyme by using the rape-root growth method

| Compound | IC50 [µM] |
| --- | --- |
| O=C(OCn1ccc(=O)[nH]c1=O)c1ccc(I)cc1 | > 269 |
| O=C(OCn1ccc(=O)[nH]c1=O)c1ccc(F)cc1 | 212 |
| O=C(OCn1ccc(=O)[nH]c1=O)c1ccc(Br)cc1 | 169 |
| COc1ccccc1C(=O)OCn1ccc(=O)[nH]c1=O | > 362 |
| O=C(OCn1ccc(=O)[nH]c1=O)c1ccc(Cl)cc1 | 182 |
| O=C(OCn1ccc(=O)[nH]c1=O)c1c(Cl)cc(C(F)(F)F)cc1Cl | > 261 |
| O=C(OCn1ccc(=O)[nH]c1=O)c1ccccc1 | 208 |
| O=C(OCn1ccc(=O)[nH]c1=O)c1ccc([N+](=O)[O-])cc1 | > 344 |
| Cc1cccc(C(=O)OCn2ccc(=O)[nH]c2=O)c1 | 62 |
| COc1ccc(C(=O)OCn2ccc(=O)[nH]c2=O)cc1 | > 362 |
| Cc1cnc(NS(=O)(=O)c2cc(Cl)ccc2Cl)s1 [2,5-Dichloro-N-(5-methyl-thiazol-2-yl)-benzenesulfonamide] | > 309 |
| Cc1ccc(NS(=O)(=O)c2ccc(F)cc2)nc1 [4-Fluoro-N-(5-methyl-pyridin-2-yl)-benzenesulfonamide] | 152 |
| COc1cc(Cl)nc(NS(=O)(=O)c2ccc(F)cc2)n1 [N-(4-Chloro-6-methoxy-pyrimidin-2-yl)-4-fluoro-benzenesulfonamide] | 111 |
| Cc1ccnc(NS(=O)(=O)c2ccccc2[N+](=O)[O-])n1 [N-(4-Methyl-pyrimidin-2-yl)-2-nitro-benzenesulfonamide] | 287 |
